Legend:
[1] = Change in AUC(infinity) in rat at 185 umol/kg, po measured upto 72 hrs by LC-MS/MS analysis; format: ADME, organism-based; settings: in vivo, at 185 µmol/kg
[2] = Half life in rat at 20 to 900 mg/kg, po; format: ADME, organism-based; settings: in vivo, dose 20-900 mg/kg
[3] = Oral bioavailability in rat; format: ADME, organism-based; settings: in vivo
[4] = AUC (0 to infinity) in human up to 1200 mg administered bid; format: ADME; design: time infinity, dose <=1200
[5] = Apparent oral clearance in female cynomolgus monkey at 225 mg/kg, po measured on day 1; format: ADME, organism-based, Macaca fascicularis; settings: in vivo
[6] = AUC (0 to 24 hrs) in female cynomolgus monkey at 225 mg/kg, po measured on day 1; format: ADME, organism-based, Macaca fascicularis; design: time < 24 hr, route oral, dose 225 mg/kg; settings: in vivo
[7] = Half life in male cynomolgus monkey at 15 mg/kg, iv measured on day 1; format: ADME, organism-based, Macaca fascicularis; settings: in vivo
[8] = Half life in female cynomolgus monkey at 75 mg/kg, po measured on day 1; format: ADME, organism-based, Macaca fascicularis; settings: in vivo
[9] = Dose normalized AUC (0 to infinity) in rat at 50 mg/kg, po measured upto 72 hrs by LC-MS/MS analysis; format: ADME, organism-based; settings: in vivo
[10] = Cmax in male cynomolgus monkey at 75 mg/kg, po measured on day 1; format: ADME, organism-based, Macaca fascicularis; design: route oral, dose 75 mg/kg; settings: in vivo
[11] = Stimulation of proliferation of CD8 positive T cells (unknown origin); format: functional, tissue-based; settings: CD8-positive T cell
[12] = Toxicity in rat assessed as labored breathing at 150 to 180 mg/kg, po; format: organism-based; settings: in vivo, dose 150-180 mg/kg
[13] = Protein binding in Beagle dog plasma; format: ADME, cell-free, Canis lupus familiaris; settings: read-out: PPB
[14] = Toxicity in rat assessed as abnormal respiratory sounds at 150 to 180 mg/kg, po; format: organism-based; settings: in vivo, dose 150-180 mg/kg
[15] = biological target: T1, Solute carrier organic anion transporter family member 1B1 (Homo sapiens, UniProt Q9Y6L6); test: Inhibition of OATP1B1 (unknown origin) expressed in HEK293 cells; format: cell-based
T1 sequence (Q9Y6L6 whole entry): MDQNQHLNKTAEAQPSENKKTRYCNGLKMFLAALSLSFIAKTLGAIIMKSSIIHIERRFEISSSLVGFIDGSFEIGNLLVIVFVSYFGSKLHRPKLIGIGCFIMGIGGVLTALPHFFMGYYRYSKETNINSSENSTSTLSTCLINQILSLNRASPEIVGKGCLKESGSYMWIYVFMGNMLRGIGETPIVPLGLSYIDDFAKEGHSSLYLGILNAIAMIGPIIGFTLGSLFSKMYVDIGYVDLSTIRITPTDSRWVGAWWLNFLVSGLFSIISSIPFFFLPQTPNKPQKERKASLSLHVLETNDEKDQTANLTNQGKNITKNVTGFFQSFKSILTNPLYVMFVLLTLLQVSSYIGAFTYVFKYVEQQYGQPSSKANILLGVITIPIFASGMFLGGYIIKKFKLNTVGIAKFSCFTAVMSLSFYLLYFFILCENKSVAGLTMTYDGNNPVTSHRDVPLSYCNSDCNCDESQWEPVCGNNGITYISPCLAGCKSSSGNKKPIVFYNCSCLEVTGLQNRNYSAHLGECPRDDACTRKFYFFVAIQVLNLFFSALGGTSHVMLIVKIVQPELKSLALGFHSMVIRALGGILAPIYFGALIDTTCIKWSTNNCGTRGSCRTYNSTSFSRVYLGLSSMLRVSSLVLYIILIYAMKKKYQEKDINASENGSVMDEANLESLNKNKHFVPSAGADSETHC

Cytochrome P450 2B6 = biological target: T2, Cytochrome P450 2B6 (Homo sapiens, UniProt P20813); test: Induction of CYP2B6 in human hepatocytes; format: ADME, cell-based, Hepatocyte
T2 sequence (P20813 whole entry): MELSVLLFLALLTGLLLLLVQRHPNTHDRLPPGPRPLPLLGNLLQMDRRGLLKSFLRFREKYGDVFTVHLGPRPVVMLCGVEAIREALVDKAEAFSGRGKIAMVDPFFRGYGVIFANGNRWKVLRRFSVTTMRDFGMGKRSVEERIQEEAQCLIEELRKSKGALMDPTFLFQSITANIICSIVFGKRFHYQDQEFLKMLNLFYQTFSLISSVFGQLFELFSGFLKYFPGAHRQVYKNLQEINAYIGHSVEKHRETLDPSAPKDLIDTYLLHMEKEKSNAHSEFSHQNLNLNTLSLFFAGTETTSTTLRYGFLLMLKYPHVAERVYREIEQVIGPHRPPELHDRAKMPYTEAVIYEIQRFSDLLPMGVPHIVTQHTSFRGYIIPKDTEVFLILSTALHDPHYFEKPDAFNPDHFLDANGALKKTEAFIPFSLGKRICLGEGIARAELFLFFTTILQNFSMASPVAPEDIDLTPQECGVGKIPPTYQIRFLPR

[16] = Drug metabolism in cynomolgus monkey assessed as ratio of indoximod to parent compound at 15 mg/kg, iv administered as single dose; format: ADME, organism-based, Macaca fascicularis; settings: in vivo
[17] = Dissociation constant, pKa of the compound; format: physicochemical
[18] = Genotoxicity in monkey; format: toxicity, Macaca mulatta; settings: rhesus monkey
[19] = biological target: T3, Broad substrate specificity ATP-binding cassette transporter ABCG2 (Homo sapiens, UniProt Q9UNQ0); test: Inhibition of BCRP in human Caco-2 cells; format: cell-based
T3 sequence (Q9UNQ0 whole entry): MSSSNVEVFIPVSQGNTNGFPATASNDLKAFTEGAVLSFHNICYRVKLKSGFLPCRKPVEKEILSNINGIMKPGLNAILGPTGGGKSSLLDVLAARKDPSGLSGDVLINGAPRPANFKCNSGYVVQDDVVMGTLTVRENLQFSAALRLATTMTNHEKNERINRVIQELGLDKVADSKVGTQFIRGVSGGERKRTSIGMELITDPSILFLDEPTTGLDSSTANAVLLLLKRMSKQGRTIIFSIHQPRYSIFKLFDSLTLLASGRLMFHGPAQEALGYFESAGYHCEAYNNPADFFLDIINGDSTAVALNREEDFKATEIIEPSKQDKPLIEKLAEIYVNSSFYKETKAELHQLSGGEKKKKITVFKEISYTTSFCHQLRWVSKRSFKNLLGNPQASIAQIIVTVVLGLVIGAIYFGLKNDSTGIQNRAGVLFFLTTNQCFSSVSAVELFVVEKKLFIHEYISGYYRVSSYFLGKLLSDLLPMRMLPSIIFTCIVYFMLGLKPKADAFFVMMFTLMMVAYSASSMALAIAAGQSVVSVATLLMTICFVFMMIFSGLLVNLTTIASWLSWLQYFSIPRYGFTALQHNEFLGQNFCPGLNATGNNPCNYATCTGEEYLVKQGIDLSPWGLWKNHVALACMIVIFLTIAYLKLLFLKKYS

[20] = Chemical stability of compound in simulated intestinal fluid assessed as compound remaining at 5 uM measured after 24 hrs by LC-MS/MS analysis; format: ADME, physicochemical; settings: read-out: Stabilty

Compound `Cn1cc(C[C@@H](N)C(=O)O)c2ccccc21` [INDOXIMOD] has an Activity [1] of 0%, a half-life [2] of 23 h and a bioavailability [3] of 50%. It also gave an AUC(0-inf) [4] of 114 µM·h, a CL/F [5] of 82.2 mL/min/kg and an AUC(0-t) at 24 h [6] of 181 µM·h. It also gave a half-life [7] of 2 h, a half-life [8] of 1.8 h and an AUC/dose [9] of 1323 µM·h. The Cmax [10] was 74.4 µM and the EC50 [11] was no less than 30 µM.
For `CCOC(=O)[C@@H](Cc1cn(C)c2ccccc12)NC(=O)[C@@H](N)CC(C)C.Cl`, the Activity [12] was “Toxic”, the fraction unbound [13] was 0.5 and the Activity [14] was “Toxic”. For the same compound, the IC50 [15] was greater than 50 µM, the Activity (Cytochrome P450 2B6) was “Not Active” and the Ratio [16] was 690. The pKa [17] was 7.76, the Activity [18] was “Non-Toxic” and the “inhibition (INH)” value [19] was “Not Active”. It also gave a remaining at 24 h, 5 µM [20] of 30%.

From ChEMBL document CHEMBL4837181 (Eur J Med Chem, 2020)
